Patent publication EP4255430B1, “8-HYDROX[…] PROTEASE INHIBITORS FOR USE IN THE PREVENTION AND/OR TREATMENT OF A CORONA VIRUS DISEASE” (Univerza v Ljubljani, priority 2020, dated 2022)

Tested on: SARS-CoV-2
Experiment: High Content Assay: antiviral activity against SARS-CoV-2 in infected Huh7-hACE2 cells (Spike immunofluorescence, infection ratio)
Details: for % of inhibition reached (maximal), based on infection ratio values: within tested concentration range, normalized to 50 µM hydroxychloroquine = 100%; for EC50 / EC90: Huh7-hACE2 cells, 0.1 MOI, 20 h; for activity against SARS-CoV-2 in Huh7-hACE2 cells (comparison between inhibitors): qualitative ranking; for EC90: read-out: EC90, the effective concentration capable to inhibit 90% of infection, follows the pre-treated values
[1] = treatment condition not restated in the sentence (follows the pre-treated values)
[2] = pre-treated conditions (compounds added 3 hours prior infection)

SMILES | % of inhibition reached (maximal), based on infection ratio values [%] | EC50 [1] | activity against SARS-CoV-2 in Huh7-hACE2 cells (comparison between inhibitors) | EC90 [µM] | EC50 [2] [µM]
CCOC(=O)[C@H]1O[C@@H]1C(=O)N[C@@H](CC(C)C)C(=O)NCCC(C)C [Compound E64d, (2S,3S)-trans-Epoxysuccinyl-L-leucylamido-3-methylbutane ethyl ester] | < 100 |  |  |  | 
CN(C)C(=O)[C@H](Cc1ccccc1)NC(=O)C1OC1C(=O)NCCc1ccccn1 (stereo in doubt) [CLIK 148, N-{L-3-trans-[2-(pyridin-2-yl)ethylcarbamoyl]-oxirane-2-carbonyl}-L-Phe dimethylamide] | < 100 | higher concentrations |  |  | 
CC1CCN(Cc2cc([N+](=O)[O-])c3cccnc3c2O)CC1 [Compound 3, 7-[(4-methylpiperidin-1yl)methyl]-5-nitroquinolin-8-ol] | 100 |  | stronger effect than CLIK 148, but weaker than Nitroxoline and Compound 17 | 10 | 
CC(C)C[C@H](NC(=O)[C@H]1O[C@@H]1C(=O)O)C(=O)NCCCCN=C(N)N (relative stereo) [Compound E64] | < 100 | higher concentrations |  |  | 
O=[N+]([O-])c1ccc(O)c2ncccc12 [Nitroxoline, 5-nitro-8-hydroxyquinoline] | 100 |  | highest activity | 7.9 | 1.9
N#CCNCc1cc([N+](=O)[O-])c2cccnc2c1O [Compound 17, 2-{[(8-hydroxy-5-nitroquinoline-7-yl)methyl]amino}-acetonitrile] | 100 |  | highest activity | 3.3 | 1.9
